From US20190375786A1, “STABLE PEPTIDES AND METHODS OF USE THEREOF” (Fred Hutchinson Cancer Research Center, priority 2016, published 2019)
“Also recorded” adds a separate entry of the source. Positions of bridges follow the written chain, without caps; N, C: chain ends. Residues, ends and D or L forms follow the SMILES beside them.

Columns and labels:
pepsin [1] = biological target: T1, pepsin (Sus scrofa, UniProt P00791); assay: Stability in SPTD (simulated gastric fluid, pepsin, Tris and DTT), RP-HPLC; format: in vitro ADME; settings: SGF pH 1.05 with 500 U/ml pepsin, 100 mM Tris, 10 mM DTT
Protocol: (§1) Peptides were first suspended in 500 ul of ddH2O to a stock concentration of 2 mg/ml. Reactions were prepared by adding 12.5 ug of peptide from the stock solution to a 10 mM solution of DTT in PBS and allowed to incubate at room temperature for 30 minutes. Other reactions were prepared with 12.5 μg peptide with or without 500 U/ml pepsin in simulated gastric fluid (SGF; pH 1.05; […] sodium chloride in 0.7% (v/v) hydrochloric acid) and were incubated for 30 minutes at 37.5° C. Some reactions were quenched with a final concentration of 100 mM Tris base and 10 mM dithiothreitol (DTT). Some reactions were performed in all of the above components, including simulated gastric fluid, pepsin, Tris, and DTT (referred to as SPTD). Reversed phase HPLC (RP-HPLC) was run on samples using an Agilent 1260 HPLC equipped with a C-18 Poroshell 120B column. Sample were analyzed by a gradient method with a mobile phase of Solvent A (water with 0.1% TFA) and Solvent B (acetonitrile with 0.1% TFA). Solvent B was ramped up from 5%-45% of the mobile phase over a period of 10 minutes. Peptides were detected at an absorbance of 214 nm and 280 nm.

trypsin = trypsin (Sus scrofa, UniProt P00761); assay: Trypsin digestion resistance of soluble peptide, RP-HPLC; format: in vitro ADME, porcine; set-up: purchased Sigma Aldrich 6567; settings: HPLC; for resistance to trypsin, Example 7 conditions (in words): 50 U trypsin (500 U/ml), 30 min at room temperature, with or without 10 mM DTT; for resistance to trypsin digestion (in words): 500 U/ml trypsin (50 U per reaction), 30 minutes at 37.5° C.
How it was run: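 12.5 μg soluble peptide digested with 500 U/ml porcine trypsin in PBS, 30 min at 37.5° C; quenched with soybean trypsin inhibitor, with or without 10 mM DTT reduction afterwards. Intact peptide assessed by C-18 RP-HPLC, 5-45% acetonitrile/0.1% TFA gradient over 10 min.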

[2] = Stability in simulated gastric fluid (SGF, pH 1.05), RP-HPLC; format: physicochemical; settings: HPLC vs non-reduced peptide
Protocol: as §1
This example illustrates peptide stability in biological conditions including in the presence of reducing agents, proteases, oxidative conditions, acidic conditions, and simulated gastric fluids. […] Various peptides were suspended in 500 μl of ddH2O at a stock concentration of 2 mg/ml. This was then diluted in accord with the reaction conditions to prevent adverse buffering effects. Reactions were prepared with 12.5 μg peptide dissolved in solution and, in some samples, additionally suspended in a 10 mM solution of DTT, simulated gastric fluid (pH 1.05; […] sodium chloride in 0.7% (v/v) hydrochloric acid), 500 U pepsin (5000 U/ml pepsin), 50 U trypsin (500 U/ml trypsin) with 1 mg/ml inhibitor in PBS, or a combination of any of these conditions. All protease reactions were incubated for 30 min at room temperature and then quenched. Pepsin reactions were quenched by adding Tris base to a final concentration of 0.075 M. Trypsin reactions were quenched by adding excess soybean trypsin inhibitor. RP-HPLC was then run on samples using an Agilent 1260 HPLC equipped with a C-18 Poroshell 120B column. Sample were analyzed by a gradient method with a mobile phase of Solvent A (water with 0.1% TFA) and Solvent B (acetonitrile with 0.1% TFA). Solvent B was ramped up from 5%-45% of the mobile phase over a period of 10 minutes.

pepsin [3] = biological target: T1, pepsin; assay: Pepsin digestion resistance in simulated gastric fluid, RP-HPLC; format: in vitro ADME, porcine; set-up: purchased Sigma Aldrich P7012; settings: HPLC; for resistance to pepsin, Example 7 conditions (in words): 500 U pepsin (5000 U/ml) in SGF, 30 min at room temperature, with or without DTT; for resistance to pepsin digestion (in words): 500 U/ml pepsin (50 U per reaction) in SGF, 30 minutes at 37.5° C.
How it was run: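 Peptide (12.5 μg) incubated 30 min at 37.5 °C with or without 500 U/ml pepsin in simulated gastric fluid (pH 1.05; 2% NaCl in 0.7% HCl); some reactions quenched with 100 mM Tris and 10 mM DTT. Intact peptide followed by C-18 RP-HPLC (5–45% acetonitrile/0.1% TFA over 10 min) at 214 and 280 nm.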

[4] = Resistance to reduction by DTT, RP-HPLC; format: physicochemical; settings: 10 mM DTT; HPLC vs non-reduced peptide
How it was run: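 Peptide (12.5 μg from a 2 mg/ml stock, or 0.015 mM final in PBS) was held 30 min at room temperature with or without 10 mM DTT. Reduced and non-reduced forms were compared by C-18 RP-HPLC using a 5–45% acetonitrile/0.1% TFA gradient over 10 min, with detection at 214 and 280 nm.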

[5] = Circular dichroism in neutral, SDS and acidic buffers; format: physicochemical
Protocol: CD spectra were measured with a Jasco J-720W spectropolarimeter using a 1.0 mm path length cell. Lyophilized peptide samples were resuspended in ultra pure water. CD runs were carried out by diluting peptides in 20 mM phosphate buffer saline (pH 7.4), 20 mM phosphate buffer saline (pH 7.4) supplemented with 1% sodium dodecyl sulfate (SDS), or phosphate buffer saline at pH 4. Peptides were diluted to 15-25 μM in concentration. Data are shown in terms of total molar ellipticity [θ]; (deg cm^2 dmol^−1).

[6] = Combined resistance grouping of hitchin peptides (FIG. 27, from Table 2 data); format: physicochemical; settings: FIG. 27 grouping of hitchin peptides
Protocol: As shown by the data in TABLE 2, the tested peptides of the present disclosure show a range of resistance to proteases, reduction, and high temperature. The peptides were classified as high, medium, or low for each condition. […] For example, after a peptide is treated at 100° C., if the HPLC peak of the peptide is mostly absent as compared to HPLC peak of the peptide not treated at 100° C., then the peptide is classified as low or having low resistance to 100° C. After a peptide is treated with reducing conditions, if there is no or very minimal HPLC peak that overlaps with the HPLC peak of the peptide not treated with reducing conditions, then the peptide is classified as low or having low resistance to reducing conditions.
The peptides with the highest resistance data were further analyzed. […] The six peptides that were further tested were peptides comprising the sequences of SEQ ID NO: 27, SEQ ID NO: 24, SEQ ID NO: 6, SEQ ID NO: 10, SEQ ID NO: 12, and SEQ ID NO: 57, which were all hitchins. […] FIG. 27C is a sequence analysis of SEQ ID NO: 27, SEQ ID NO: 24, SEQ ID NO: 6, SEQ ID NO: 10, SEQ ID NO: 12, and SEQ ID NO: 57 from FIG. 27B. FIG. 27C identifies which amino acids are present at each position in SEQ ID NO: 27, SEQ ID NO: 24, SEQ ID NO: 6, SEQ ID NO: 10, SEQ ID NO: 12, and SEQ ID NO: 57. For example, at position one, all peptide sequences comprise a G amino acid residue; at position two, all peptide sequences comprise an S amino acid residue; at position three, all peptide sequences comprise either G, Q, or V amino acid, or null; and at position four, all peptide sequences comprise V, R, or K amino acid, or null. […] SEQ ID NO: 167 and SEQ ID NO: 168 describe sequences of peptides that are particularly resistant to reduction, pepsin, 75° C., and 100° C., which would typically degrade peptides. […] Additionally, SEQ ID NO: 169 describes sequences of peptides that are also particularly resistant to trypsin.

trypsin, sequence (P00761 9-231): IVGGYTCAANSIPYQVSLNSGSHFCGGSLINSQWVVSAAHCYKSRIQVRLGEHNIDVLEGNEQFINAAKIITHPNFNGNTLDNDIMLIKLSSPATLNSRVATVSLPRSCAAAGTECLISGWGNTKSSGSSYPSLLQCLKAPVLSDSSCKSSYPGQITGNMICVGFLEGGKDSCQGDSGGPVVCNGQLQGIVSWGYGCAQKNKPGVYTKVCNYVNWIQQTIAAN
T1 sequence (P00791 60-385): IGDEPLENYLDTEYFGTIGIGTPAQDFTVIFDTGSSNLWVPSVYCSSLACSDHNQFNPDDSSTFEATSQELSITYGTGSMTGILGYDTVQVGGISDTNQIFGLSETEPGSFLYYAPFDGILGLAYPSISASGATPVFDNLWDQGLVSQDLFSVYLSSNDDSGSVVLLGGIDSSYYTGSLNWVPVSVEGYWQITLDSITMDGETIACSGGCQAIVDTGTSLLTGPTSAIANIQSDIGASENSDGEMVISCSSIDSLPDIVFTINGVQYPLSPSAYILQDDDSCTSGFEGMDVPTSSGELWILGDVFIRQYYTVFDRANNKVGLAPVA

**Q.** With CC[C@H](C)[C@@H]1NC(=O)[C@@H]2CSSC[C@H](NC(=O)[C@H](CCCCN)NC(=O)[C@@H](NC(=O)[C@H](CC(N)=O)NC(=O)[C@@H](NC(=O)[C@@H]3CCCN3C(=O)[C@@H](NC(=O)CNC(=O)[C@H](CO)NC(=O)CN)C(C)C)[C@@H](C)CC)C(C)C)C(=O)N[C@@H](CCCNC(=N)N)C(=O)NCC(=O)N[C@@H](CO)C(=O)N[C@@H](CCCNC(=N)N)C(=O)N[C@@H](CC(=O)O)C(=O)N[C@H]3CSSC[C@H](NC(=O)[C@H](CCCCN)NC(=O)[C@H](CO)NC(=O)[C@H](CC(N)=O)NC1=O)C(=O)N[C@@H](Cc1c[nH]cn1)C(=O)N[C@H](C(=O)N[C@H](C(=O)N1CCC[C@H]1C(=O)O)[C@@H](C)O)CSSC[C@H](NC(=O)[C@@H]1CCCN1C(=O)[C@H](CC(=O)O)NC(=O)[C@H](CC(C)C)NC3=O)C(=O)N[C@@H](CCCCN)C(=O)N[C@@H](CCCCN)C(=O)N[C@@H](C)C(=O)NCC(=O)N[C@@H](CCSC)C(=O)N[C@@H](CCCNC(=N)N)C(=O)N[C@@H](Cc1ccccc1)C(=O)NCC(=O)N[C@@H](CCCCN)C(=O)N2 [SEQ ID NO: 27] (H-GSGVPINVKCRGSRDCLDPCKKAGMRFGKCINSKCHCTP-OH; disulfide 10-30, 16-35, 20-37) as the compound, how does the “resistance in SPTD (SGF, pepsin, Tris, DTT) (in words)” value (pepsin [1]) read?
**A.** The value was “highly resistant”.

**Q.** And the “resistance to trypsin, Example 7 conditions (in words)” value (trypsin)?
**A.** Its value is “remained intact”.

**Q.** And the “resistance to trypsin digestion (in words)” value (trypsin)?
**A.** The value was “highly resistant; also recorded: fully resistant”.

**Q.** And the “stability in simulated gastric fluid / low pH (in words)” value [2]?
**A.** The value was “highly resistant; also recorded: remained intact”.

**Q.** And the “resistance to pepsin, Example 7 conditions (in words)” value (pepsin [3])?
**A.** The value was “remained intact”.

**Q.** And the “resistance to pepsin digestion (in words)” value (pepsin [3])?
**A.** Its value is “highly resistant”.

**Q.** For “GSGVPINVRCRGSRDCLDPCRRAGMRFGRCINSRCHCTP [SEQ ID NO: 31]”, which “resistance in SPTD (SGF, pepsin, Tris, DTT) (in words)” value (pepsin [1]) is on record?
**A.** The value was “highly resistant”.

**Q.** And the “resistance to trypsin, Example 7 conditions (in words)” value (trypsin)?
**A.** Its value is “remained intact; also recorded: resistant”.

**Q.** And the “stability in simulated gastric fluid / low pH (in words)” value [2]?
**A.** The value was “highly resistant; also recorded: remained intact; also recorded: intact and resistant”.

**Q.** And the “resistance to reduction by DTT (in words)” value [4]?
**A.** The value was “highly resistant; also recorded: remained intact; also recorded: intact and resistant”.

**Q.** What about the “resistance to pepsin, Example 7 conditions (in words)” value (pepsin [3]) of the same compound?
**A.** Its value is “remained intact; also recorded: resistant”.

**Q.** What about the “resistance to pepsin digestion (in words)” value (pepsin [3]) of the same compound?
**A.** The value was “highly resistant”.

**Q.** What does the source list for “GSQFTNVSCTTSRECWSVCQRLHNTSRGRCMNRRCRCYS [SEQ ID NO: 2]”?
**A.** resistance in SPTD (SGF, pepsin, Tris, DTT) (in words) (pepsin [1]): resistant; resistance to trypsin digestion (in words) (trypsin): highly resistant; stability in simulated gastric fluid / low pH (in words) [2]: remained intact; resistance to reduction by DTT (in words) [4]: remained intact; also recorded: highly resistant

**Q.** With “GSVFINVKCRGSPECLPKCKEAIGKSAGKCMNGKCKCYP [SEQ ID NO: 37]” as the compound, how does the “secondary structure by CD in phosphate buffer saline at pH 4” value ([5]; pH 4) read?
**A.** The value was “retained its secondary structure”.

**Q.** And the “secondary structure by CD in phosphate buffer saline at pH 7.2” value ([5]; pH 7.2)?
**A.** The value was “retained its secondary structure”.

**Q.** And the “secondary structure by CD in phosphate buffer saline at pH 7.2 with 1% SDS” value ([5]; pH 7.2, 1% sodium dodecyl sulfate)?
**A.** The value was “lost secondary structure”.

**Q.** What about the “combined resistance to reduction, pepsin and elevated temperatures such as 75° C. and 100° C.” value [6] of the same compound?
**A.** Its value is “not highly resistant”.
